Experimental data reported in patent publication US9980943B2, “Methods of treating muscular dystrophy” (BOARD OF REGENTS OF THE NEVADA SYSTEM OF HIGHER EDUCATION, …, priority 2013, dated 2018).

Assays:
Assay type in all cases: cell-based, mouse
[1] = test system: α7 integrin (LacZ reporter in α7+/LacZ myotubes); test: Myotube α7 integrin FDG assay (Burkin assay in myotubes, 96-well); conditions: myotubes
[2] = test system: α7 integrin (LacZ reporter in α7βgal+/− myoblasts); test: Myoblast α7+/LacZ integrin FDG assay (Burkin assay in myoblasts, 96-well); conditions: α7+/LacZ myoblasts, 96-well
[3] = test system: β-galactosidase in CMV-LacZ C2C12 myoblasts; test: CMV-LacZ secondary screen in C2C12 myoblasts (β-Gal stabilizing assay); conditions: CMV-LacZ C2C12 myoblasts
In short: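 Dose-response runs at 0.5–40 μM (0.5, 1, 5, 10, 20, 40 μM; N=2 per point) used a clonal C2C12 line carrying CMV-LacZ. Cells were assayed as myoblasts or as differentiated myotubes, and β-galactosidase levels were read with the FDG fluorogenic substrate.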

[4] = test system: β-galactosidase in CMV-LacZ C2C12 myotubes; test: CMV-LacZ secondary screen in C2C12 myotubes (β-Gal stabilizing assay); conditions: C2C12 CMV-LacZ myotubes, fold relative to DMSO
In short: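 β-Gal level was the read-out, measured in a clonal C2C12 line expressing LacZ from a CMV promoter. Dose-response curves used six concentrations, 0.5 μM up to 40 μM, with duplicate points.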

Compound | Burkin Assay in Myotubes, α7 integrin LacZ reporter signal relative to DMSO ([1]; 0.5 uM) | Burkin Assay in Myotubes, α7 integrin LacZ reporter signal relative to DMSO ([1]; 1 uM) | Burkin Assay in Myotubes, α7 integrin LacZ reporter signal relative to DMSO ([1]; 5 uM) | Burkin Assay in Myotubes, α7 integrin LacZ reporter signal relative to DMSO ([1]; 10 uM) | Burkin Assay in Myotubes, α7 integrin LacZ reporter signal relative to DMSO ([1]; 20 uM) | Burkin Assay in Myotubes, α7 integrin LacZ reporter signal relative to DMSO ([1]; 40 uM) | Burkin Assay in Myoblasts, signal relative to DMSO ([2]; 0.5 uM) | Burkin Assay in Myoblasts, signal relative to DMSO ([2]; 1 uM) | Burkin Assay in Myoblasts, signal relative to DMSO ([2]; 5 uM) | Burkin Assay in Myoblasts, signal relative to DMSO ([2]; 10 uM) | Burkin Assay in Myoblasts, signal relative to DMSO ([2]; 20 uM) | Burkin Assay in Myoblasts, signal relative to DMSO ([2]; 40 uM) | CMV-LACZ in Myoblasts (β-galactosidase activity relative to DMSO) ([3]; 0.5 uM) | CMV-LACZ in Myoblasts (β-galactosidase activity relative to DMSO) ([3]; 1 uM) | CMV-LACZ in Myoblasts (β-galactosidase activity relative to DMSO) ([3]; 5 uM) | CMV-LACZ in Myoblasts (β-galactosidase activity relative to DMSO) ([3]; 10 uM) | CMV-LACZ in Myoblasts (β-galactosidase activity relative to DMSO) ([3]; 20 uM) | CMV-LACZ in Myoblasts (β-galactosidase activity relative to DMSO) ([3]; 40 uM) | CMV-LACZ in Myotubes, signal relative to DMSO ([4]; 0.5 uM) | CMV-LACZ in Myotubes, signal relative to DMSO ([4]; 1 uM) | other results
COC(=O)Cn1c(=O)c2c(nc3n2CC(C)CN3Cc2ccccc2)n(C)c1=O (stereo not drawn) [MLS001166758-01] | 1.0327 | 1.027 | 0.9857 | 0.8979 | 0.9856 | 0.8754 | 0.824 | 0.7394 | 0.9736 | 0.8245 | 0.7275 | 0.6174 | 0.9357 | 1.0175 | 1.1998 | 1.0661 | 0.6126 | 0.3481 | 0.9958 | 0.7474 | CMV-LACZ in Myotubes, signal relative to DMSO ([4]; 5 uM): 0.9780; CMV-LACZ in Myotubes, signal relative to DMSO ([4]; 10 uM): 0.9444; CMV-LACZ in Myotubes, signal relative to DMSO ([4]; 20 uM): 1.1044; CMV-LACZ in Myotubes, signal relative to DMSO ([4]; 40 uM): 0.9867
CC(NC(=O)c1ccc(C(C)(C)C)cc1)C(c1cccs1)N1CCOCC1 (stereo not drawn) [MLS001167281-01] | 1.063 | 1.054 | 1.074 | 1.142 | 0.8293 | 0.8345 | 1.089 | 1.18 | 1.075 | 0.9776 | 0.8869 | 0.8618 | 1.0114 | 1.1289 | 0.9684 | 1.1951 | 0.9256 | 0.7467 | 1.0663 | 1.0789 | CMV-LACZ in Myotubes, signal relative to DMSO ([4]; 5 uM): 0.8948; CMV-LACZ in Myotubes, signal relative to DMSO ([4]; 10 uM): 0.9727; CMV-LACZ in Myotubes, signal relative to DMSO ([4]; 20 uM): 1.1089; CMV-LACZ in Myotubes, signal relative to DMSO ([4]; 40 uM): 0.9722
